What was measured:
DU-145 = experiment: Caspase apoptosis assay (Ac-DEVD-AMC fluorescence); assay type: cell-based, human; conditions: 96 hours; for Mean fluorescence DU-145 samples/100 cells n = 3 / Mean fluorescence DU-145 samples n = 3: 100 nM, mean (range); for Mean fluorescence DU-145 samples/100 cells n = 3: corrected for cell number
Description: (§1) Exposure was maintained for 96 hours and cells in culture flasks were then treated with 5 ml of trypsin (0.25%) for PC-3 and trypsin and 3 ml of Versene (0.2 mM) for DU-145. Cells were then mechanically loosened, using a glass spatula. 100 μL aliquots were removed for Trypan blue exclusion trial. 200 μL aliquots were removed for cytospin preparations. The remaining 700 μL samples were then centrifuged for 5 minutes at 510×g at 4° C. Supernatant was removed and cells were resuspended in medium in 1 ml of insect cell lysis buffer (Pharmingen # 21425A) and incubated for 30 minutes on ice. The cell lysates were then stored at −70° C. until analysis.
(§2) Aliquots of a 100 μL of cell lysate were removed for the caspase assay. Each portion was mixed with 1 ml protease assay buffer and Ac-DEVD-AMC substrate (Pharmingen # 66081U) with a final concentration of 20 μM. Solutions were incubated for 60 minutes at 37° C.
(§3) To determine background fluorescence a control was prepared, containing no cell lysate but the same amounts of protease assay buffer, lysis buffer and Ac-DEVD-AMC substrate.
(§4) Fluorescence was measured using a spectrofluorometer (RF 540, Shimadzu Data Recorder DR3, Instrument AB, Lambda) at 415-450 nm with an excitation wavelength of 380 nm.

[1] = system: Dunning R 3327, AT-1, rat prostatic tumour; experiment: Tumour growth after s.c. injection near tumour; assay type: in vivo; conditions: for tumour volumes: Animals II, single s.c. injection in the proximity of the tumour
Description: The animal experiment described above was repeated.
Group 1 received a single dose of 10 mg 17α-AED sc. near tumour.
Group 2 received a single dose of 80 mg 17β-AED in the same way.
Group 3 received a single dose of 25 mg 17α OH-pregnenolone in the same way.
Group 4 received a single dose of 7.5 mg 5-androstene-3β,7β,17α-triol.
A fifth group served as tumour bearing controls.

PPARγ = target: T1, PPARγ (Mus musculus, UniProt P37238); experiment: Ligand-induced coactivator interaction assay (GST-PPARγ / SRC-1); assay type: biochemical; conditions: for PPARγ-ligand activity of the steroid per se: 10 and 100 μM solutions, no liver cytosol; for band in coactivator assay, steroid incubated with liver cytosol: liver cytosol alone gives weak bands, no PAPS
T1 construct: made in house; host or cells: E. coli strain Y 1090 (GST-PPARγ); TNT Coupled Reticulocyte Lysate System, Promega (SRC-1)
Description: ApcDNA3-SRC-1 construct was used as template to prepare (^35S-methionine)-SRC-1 by in vitro transcription and translation using the TNT® Coupled Reticulocyte Lysate System (Promega).
Ligand-induced interactions between GST-PPARγ and SRC-1: To generate GST-PPARγ fusion protein, mouse PPARγcDNA was inserted into the NcoI-HindIII sites of pGEX-KG, and protein was then expressed in E. coli, strain Y 1090. The bacteria were lysed by sonication in TEDG buffer (50 mM Tris (pH 7.4), 1.5 mM EDTA, 10% glycerol, 0.4 M NaCl, 0.1 mM DTT) containing the following protease inhibitors: 0.5 mM PMSF, 1 mM benzamidine, 10 μg/ml leupeptin, 10 μg/ml antipain and […] aprotinin. The lysates were centrifuged at 100,000×g for 60 min in a SW 41 rotor using a Beckman L8-70 M ultracentrifuge. The fusion protein was immobilized on GSH Sepharose beads (Pharmacia) and then incubated with potential ligands in (FIG. 5) 10 mM Tris (pH7.4), 0.12 M KCl, 8% glycerol, 4 mM DTT, and 0.5% CHAPS (buffer AA) for 30 min at room temperature. Thereafter, (^35S methionine) SRC-1 (ca 0.1 μCi) was added, and the beads were incubated for another hour at 4° C. and then washed extensively with buffer A. SDS sample buffer was added to the beads, and the samples boiled prior to separation on 7.5% SDS-PAGE. Radioactivity was detected by autoradiography.
α- and β-AED were investigated in above assay for PPARγ ligand activity in 10 and 100 μM solutions in ethanol 10%, in distilled water. 10 μL aliquots of α-AED-solution or β-AED-solution were also added to a preparation of a male rat liver cytosolic preparation prepared as follows:
A homogenate of a rat liver, a known source of steroid sulphotransferase activity, was prepared using a food processor. The liver homogenate was protected from serine-proteases by the addition of 2 mmol of PMSF, 1 mmol of EDTA and 10 mmol Tris-HCl buffered to a pH of 7.40. The homogenate was prepared at 4° C. and then centrifuged at 15000 g for 10 minutes, followed by centrifugation at 100000 g for an hour at 4° C. The supernatant was divided into test tubes containing one of the following steroids: 17β-AED or 17α-AED in 5 μM concentration together with 100 μL of liver cytosol. One test tube served as positive control and contained SCR-1.
In a second experiment the following steroids were tested for activity: 17α-AED, 17OH-pregnenolone and 5-androstene-3β,7β,17α-triol with and without 10 μL of […] (PAPS), Sigma Chemicals, corresponding to 0.1 mg of PAPS. One test tube served as a positive control and contained SRC-1 Instead of steroid. One test tube contained liver cytosol where the steroid sulphotransferase was inactivated by heating to 45° C. for 30 minutes. Tubes were stirred at 20° C. for 1 hour and the contents were investigated in the receptor-coactivator assay for ligand activity (FIG. 5).
17α-AED was treated in the method described by Arnostova, Libuse M.; Pouzar, Vladimir; Drasar, Pavel. Inst. Org. Chem. Biochem., Czech. Acad. Sci., Prague, Czech. Synth. Commun. (1990), 20(10), 1521-9, where acetate is used as protection group and pyridine —SO3 complex as the sulfating agent. Deprotection with an excess of 0.8M NaOH in MeOH-water provides the desired hydroxy sulfate, which is investigated, for PPARγ-activity in the ligand-activated-coactivator receptor assay described above.

PC-3 = experiment: Caspase-3 apoptosis assay (Ac-DEVD-AMC fluorescence); assay type: cell-based, human; conditions: 96 hours; for Mean fluorescence PC-3 samples/100 cells n = 3: corrected for cell number; for Caspase 3-mediated fluorescence compared to untreated controls: PC-3, 100 nM, not corrected for cell numbers
Description: as §1, §2, §3, §4

T1 sequence (P37238 whole entry): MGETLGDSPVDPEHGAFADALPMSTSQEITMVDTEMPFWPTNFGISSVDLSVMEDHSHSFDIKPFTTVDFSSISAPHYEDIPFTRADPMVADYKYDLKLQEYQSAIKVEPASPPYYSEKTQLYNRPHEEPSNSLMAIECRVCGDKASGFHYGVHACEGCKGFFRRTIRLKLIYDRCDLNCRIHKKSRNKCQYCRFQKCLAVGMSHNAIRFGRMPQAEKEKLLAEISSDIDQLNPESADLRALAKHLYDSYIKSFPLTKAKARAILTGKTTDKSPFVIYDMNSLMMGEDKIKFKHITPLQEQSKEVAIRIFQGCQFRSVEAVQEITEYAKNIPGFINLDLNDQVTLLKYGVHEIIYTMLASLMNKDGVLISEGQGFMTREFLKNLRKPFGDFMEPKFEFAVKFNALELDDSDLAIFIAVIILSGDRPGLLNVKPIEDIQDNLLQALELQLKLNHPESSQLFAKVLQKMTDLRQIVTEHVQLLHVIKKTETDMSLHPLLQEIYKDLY
T1 sequence (Q15788 whole entry partner): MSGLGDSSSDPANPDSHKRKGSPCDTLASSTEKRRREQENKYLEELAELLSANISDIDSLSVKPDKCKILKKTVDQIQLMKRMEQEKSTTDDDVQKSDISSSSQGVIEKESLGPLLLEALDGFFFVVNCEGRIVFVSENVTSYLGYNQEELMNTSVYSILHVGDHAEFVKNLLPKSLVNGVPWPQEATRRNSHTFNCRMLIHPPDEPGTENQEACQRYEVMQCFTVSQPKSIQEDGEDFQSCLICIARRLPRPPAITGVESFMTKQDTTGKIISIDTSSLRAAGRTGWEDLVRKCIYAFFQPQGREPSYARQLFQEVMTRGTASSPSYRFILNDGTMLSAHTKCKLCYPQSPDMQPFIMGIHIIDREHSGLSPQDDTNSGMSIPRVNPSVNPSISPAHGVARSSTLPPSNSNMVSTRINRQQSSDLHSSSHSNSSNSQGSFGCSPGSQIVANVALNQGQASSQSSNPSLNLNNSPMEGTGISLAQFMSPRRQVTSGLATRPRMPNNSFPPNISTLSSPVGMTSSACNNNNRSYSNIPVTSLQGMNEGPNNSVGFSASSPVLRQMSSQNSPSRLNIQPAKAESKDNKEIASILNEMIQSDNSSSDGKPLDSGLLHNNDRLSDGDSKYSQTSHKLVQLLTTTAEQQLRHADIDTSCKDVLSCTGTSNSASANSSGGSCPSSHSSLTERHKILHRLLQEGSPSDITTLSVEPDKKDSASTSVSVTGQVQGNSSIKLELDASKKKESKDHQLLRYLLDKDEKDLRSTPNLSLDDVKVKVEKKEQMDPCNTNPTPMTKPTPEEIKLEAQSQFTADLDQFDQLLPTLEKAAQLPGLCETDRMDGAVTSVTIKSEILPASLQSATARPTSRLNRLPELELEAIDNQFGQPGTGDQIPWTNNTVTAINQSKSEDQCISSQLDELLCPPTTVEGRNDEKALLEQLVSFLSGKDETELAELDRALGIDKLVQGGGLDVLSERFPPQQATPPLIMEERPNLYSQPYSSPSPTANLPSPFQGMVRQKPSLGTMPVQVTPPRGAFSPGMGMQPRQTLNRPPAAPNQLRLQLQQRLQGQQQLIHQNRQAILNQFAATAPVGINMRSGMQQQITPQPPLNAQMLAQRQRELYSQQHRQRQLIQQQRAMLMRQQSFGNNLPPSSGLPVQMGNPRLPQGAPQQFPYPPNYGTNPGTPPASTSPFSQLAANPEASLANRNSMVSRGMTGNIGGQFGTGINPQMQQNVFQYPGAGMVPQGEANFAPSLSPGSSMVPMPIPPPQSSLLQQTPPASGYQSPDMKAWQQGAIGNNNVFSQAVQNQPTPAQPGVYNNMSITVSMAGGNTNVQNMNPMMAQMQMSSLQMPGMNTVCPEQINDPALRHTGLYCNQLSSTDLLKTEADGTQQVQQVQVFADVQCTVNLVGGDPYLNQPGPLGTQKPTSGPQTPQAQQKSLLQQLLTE

Row | Structure (SMILES) | Mean fluorescence DU-145 samples/100 cells n = 3 (DU-145) | Mean fluorescence DU-145 samples n = 3 (DU-145) | caspase-3 or caspase-7 fluorescence compared to 17β-AED or controls (DU-145; DU-145, 100 nM) | tumour volumes [1] [%] | PPARγ-ligand activity of the steroid per se (PPARγ) | band in coactivator assay, steroid incubated with liver cytosol (PPARγ) | PPARγ-ligand activity, steroid + liver cytosol + PAPS (PPARγ; second experiment, active liver cytosol, sulfate formed in situ) | PPARγ-ligand activity, native steroid + liver cytosol (PPARγ; second experiment, without PAPS) | Mean fluorescence PC-3 samples/100 cells n = 3 (PC-3; 100 nM, mean (range)) | Caspase 3-mediated fluorescence compared to untreated controls (PC-3) | antitumoural effect / tumour growth ([1]; original experiment (Animals I)) | Mean fluorescence PC-3 samples n = 3 (PC-3; 100 nM, mean (range))
1 | C[C@]12CC[C@H]3[C@@H](CC=C4C[C@@H](O)CC[C@@]43C)[C@@H]1CC[C@H]2O [Compound 17α-AED, androstene-3β,17α-diol] | 14.2((10.9-20.3) | 18.4(13.2-25.2) | significant decline | ~150 | No sign of transcription pointing to a ligand activity | band was extinguished | significant difference in signal | insignificant responses | 19.5(15.7-25.9) | essentially unaltered intensity | – | –
2 | C[C@]12CC[C@H]3[C@@H](CC=C4C[C@@H](O)CC[C@@]43C)[C@@H]1CC[C@@H]2O [Compound 17β-AED, reference compound] | 35.1(25.6-50.3) | 42.9(32.0-58.8) | – | ~200 | No sign of transcription pointing to a ligand activity | identical result | – | – | 45.5(24.5-75.2) | approximately a doubling of fluorescence | growth-stimulatory effect | 29.6(17.4-48.1)
